Where two headings read alike, the source gives them in different places.
How the values were obtained:
C2BBe1 cells [1] = assay: Intestinal barrier function by ECIS in C2BBe1 cells; type: cell-based, human; details: 48 hours; for barrier resistance (ECIS), barrier formation: 75 Hz, #58 at 1 uM and 10 uM vs DMSO control
Description: Cells were cultured in DMEM containing 10% FBS, and the next day (day 1), the medium was replaced with that containing 0.5% serum. On day 2, media was changed and test agents were added in duplicate in media containing 0.5% serum. The experiment was concluded 48 hours later (day 4). Barrier resistance was measured on the ECIS instrument. The plots shown are at 75 Hz beginning at day 2 post-addition of the test agents with resistance values normalized to those observed just prior to the addition of test agents. For barrier disruption and reformation studies, cells were cultured in transwells in the ECIS array as described above in the presence of 10% serum for one day and 0.5% serum for another day. On day 2, the media was replaced with media containing 0.5% serum and 2.5 mM EGTA (in apical and basolateral chambers). The EGTA was washed off 5 hours later and replaced with media containing 0.5% serum and test agents. Cells were monitored over the next 48 hours for barrier reformation and the plots shown are at 75 Hz with resistance values normalized to those observed just prior to the addition of test agents.

human FFA2 receptor = target: T1, human FFA2 receptor (Homo sapiens, UniProt O15552); assay: Aequorin assay, cytosolic calcium in CHO-K1 cells stably expressing aequorin and human FFA2 receptor; type: cell-based; details: CHO-K1 cells stably expressing human GPR43, read-out: Ca^2+ (Aequorin)
T1 construct: expressed in transfected cells
T1 sequence (O15552 1-330): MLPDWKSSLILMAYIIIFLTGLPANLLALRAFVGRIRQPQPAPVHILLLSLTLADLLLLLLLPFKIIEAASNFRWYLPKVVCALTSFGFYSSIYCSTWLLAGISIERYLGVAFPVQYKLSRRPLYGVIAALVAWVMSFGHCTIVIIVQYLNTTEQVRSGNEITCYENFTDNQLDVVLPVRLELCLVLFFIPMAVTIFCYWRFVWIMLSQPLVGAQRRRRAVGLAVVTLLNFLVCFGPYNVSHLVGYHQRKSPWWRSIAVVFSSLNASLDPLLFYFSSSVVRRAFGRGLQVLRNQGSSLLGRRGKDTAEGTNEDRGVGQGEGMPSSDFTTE
Description: Agonist-induced receptor activation was determined by an increase in cytosolic calcium concentration in CHO-K1 cells stably expressing the mitochondrial targeted aequorin and human FFA2 receptor. The increased cytosolic calcium was monitored by luminescence emitted from aequorin as previously described

human PBMC = assay: LPS stimulation of PBMC, cytokine production; type: cell-based; details: for effect on LPS-induced cytokine production: μM range; for effect on LPS-induced cytokine production / IC50: 1 μg/mL LPS, 18 hours; for IC50: Homo sapiens, PBMC, 45 minutes preincubation
Description: Amgen Institutional Review Board approval and consent was obtained for collection and the studies involving human blood. PBMC were isolated from heparinized blood using Ficoll and then plated onto 96-well plates. Butyrate or GPR43 agonists were incubated with the PBMC for 45 minutes prior to the addition of 1 μg/mL lipopolysaccharide (LPS). Cell culture supernatants were collected at 18 hours post-stimulation. TNFα, IL-1β and IL-6 production were measured using Meso Scale Discovery multiplex kits.

human GPR43 = target: T2, human GPR43 (Homo sapiens, UniProt O15552); assay: cAMP inhibition assay (HTRF), forskolin-induced cAMP in CHO cells stably expressing human GPR43; type: cell-based; details: inhibition of forskolin-induced cAMP production
T2 construct: expressed in transfected cells
T2 sequence (O15552 1-330): T1 sequence (O15552 1-330)
Description: A competitive, HTRF® immunoassay (CisBio Dynamic 2 cAMP kit) was used to measure the inhibition of cAMP response in CHO cells stably expressing human GPR43. Assay-ready cells were thawed, resuspended in PBS and stimulated with forskolin (3μM final) for 45 minutes at room temperature in the presence of serially diluted natural ligands or test compounds in a 384 well plate (Greiner). Subsequently the cells were lysed by adding lysis buffer containing the cAMP-Tracer and Europium-labeled anti-cAMP antibody according to the manufacturer’s protocol. The signals were recorded using a Perkin Elmer Envision. The raw data was calculated as fluorescence ratio (665nm/620nm) and analyzed using GraphPad Prism Software.

human T cells = assay: One-way mixed lymphocyte reaction, T cell proliferation and cytokines; type: cell-based
Source text: Amgen Institutional Review Board approval and consent was obtained for collection and the studies involving human blood. PBMC were obtained from volunteers’ human blood using Ficoll. T cells were isolated using magnetic sorting with a pan T cell isolation kit (Miltenyi Biotec). Stimulator cells were isolated by negative magnetic sorting using anti-CD3 beads to deplete CD3+ cells. The stimulator cells were irradiated and mixed together with the purified T cells in the presence or absence of the SCFA or agonist. Supernatants were collected at day 3 for cytokine measurements using Meso Scale Discovery multiplex kits, and proliferation was measured at day 4 after an 18 hour pulse with 1μCi 3H-thymidine per well.

C2BBe1 cells [2] = assay: Intestinal barrier function by TEER and Lucifer Yellow in C2BBe1 monolayers
[3] = system: intestinal epithelial cells; design: method as in PMID 9142899, PMID 17211138; details: published data ref [13], [15]; cited from earlier work
[4] = 72 h, supernatant day 3, read-out: IL-17A IC50

| SMILES | barrier resistance (ECIS), barrier formation (C2BBe1 cells [1]) | EC50 (human FFA2 receptor; 10% FBS) | EC50 (human FFA2 receptor; No FBS) | effect on LPS-induced cytokine production (human PBMC) | EC50 (human GPR43) | IC50 (human T cells; [4]) | barrier reformation after EGTA disruption (ECIS resistance) (C2BBe1 cells [1]; 2.5 mM EGTA 5 hours, then test agents) | IC50 (human PBMC; read-out: IL-1β IC50) | IC50 (human PBMC; read-out: IL-6 IC50) | IC50 (human PBMC; read-out: TNFα IC50) | cell viability (human PBMC; highest concentrations utilized in this assay) | toxicity in TEER assays (C2BBe1 cells [2]; 5 mM) | effect on transepithelial electrical resistance (TEER) (C2BBe1 cells [2]; C2BBe1 monolayers, day 5) | concentrations toxic to intestinal epithelial cells [3] | IC50 (human T cells; 72 h, supernatant day 3, read-out: IFNγ IC50) | IC50 (human T cells; day 4, 3H-thymidine, read-out: Proliferation IC50) |
| --- | --- | --- | --- | --- | --- | --- | --- | --- | --- | --- | --- | --- | --- | --- | --- | --- |
| CC(C)(C)[C@H](C(=O)Nc1ncc(-c2ccccc2)s1)c1ccc(Cl)cc1 [#58] | did not result in increased resistance | 0.6 µM | 0.3 µM | slight increase in some cytokines | 1.8 µM | 8.88 µM |  |  |  |  |  |  |  |  |  |  |
| CC(C)[C@H](C(=O)Nc1ncc(F)s1)c1ccc(Cl)cc1 [#44] |  | 1 µM | 0.6 µM | only the highest concentration of the agonist #44 resulted in inhibition of cytokine production | 1.1 µM | 2.45 µM |  |  |  |  |  |  |  |  |  |  |
| CCCC(=O)O [Butyrate, butyrate] | quicker increase, as well as higher measurements of resistance |  |  |  | 1060 µM | 60 µM | earlier and higher levels of resistance | 440 µM | 2440 µM | 130 µM | not altered | appeared to be toxic | most potent of the three SCFA | > 5000 µM | 50 µM | 170 µM |

From article PMC5519041, “Differing roles for short chain fatty acids and GPR43 agonism in the regulation of intestinal barrier function and immune responses” (PLoS ONE, 2017)
